# What was measured:
# [1] = system: IL-6 levels in human whole blood stimulated with a TLR2 agonist; assay: IRAK4 Whole Blood Assay (lipoteichoic acid/TLR2-stimulated IL-6); format: cell-based; conditions: lipoteichoic acid 10 μg/mL, IL-6 readout
# Method in brief: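 IL-6 was quantified by cytometric bead assay in supernatants of human blood (ACD-A) stimulated for 5 h with lipoteichoic acid at 10 μg/mL final. Compound exposure preceded stimulation for 60 min at 37 °C, 5% CO2.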
# Caco Permeability Assay = format: in vitro ADME; conditions: human, Caco-2, Caco-2 cells, 3 μM compound
# IRAK4 = IRAK4 (Homo sapiens (Human), UniProt Q9NWZ3); assay: IRAK4 Inhibition Assay; format: biochemical; conditions: ATP 500 μM; IRAK4 0.6 nM
# Chain of IRAK4 (Q9NWZ3 whole entry): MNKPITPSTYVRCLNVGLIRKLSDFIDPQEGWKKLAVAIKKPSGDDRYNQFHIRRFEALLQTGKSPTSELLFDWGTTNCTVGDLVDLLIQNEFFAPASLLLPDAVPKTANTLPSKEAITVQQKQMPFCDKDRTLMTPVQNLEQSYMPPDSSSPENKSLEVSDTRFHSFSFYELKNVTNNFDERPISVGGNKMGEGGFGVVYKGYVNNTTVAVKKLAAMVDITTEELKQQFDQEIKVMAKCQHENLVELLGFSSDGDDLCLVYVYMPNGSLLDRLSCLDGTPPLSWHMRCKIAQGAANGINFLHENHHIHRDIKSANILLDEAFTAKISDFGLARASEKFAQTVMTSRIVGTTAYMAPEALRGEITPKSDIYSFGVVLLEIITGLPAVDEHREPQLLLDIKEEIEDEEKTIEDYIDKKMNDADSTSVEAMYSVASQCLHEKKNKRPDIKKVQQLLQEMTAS
# Method in brief: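 Mobility-shift kinase assay: 0.6 nM IRAK4, 500 μM ATP, 1.5 μM fluorescent peptide, 60 min, room temperature. Percent inhibition was normalised between enzyme-free and DMSO-only wells.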
Compound,EC50 ([1]; Homo sapiens),"Papp at 2 h, 3 µM (Caco Permeability Assay)",IC50 (IRAK4),EC50 [1]
"CC(C)(O)[C@H](F)CNC(=O)c1cnc(-c2cnn3cc(Cl)cnc23)cc1NCCCO [Example 164, (R)-6-(6-chloropyrazolo[1,5-a]pyrimidin-3-yl)-N-(2-fluoro-3-hydroxy-3-methylbutyl)-4-((3-hydroxypropyl)amino)nicotinamide]",270 nM,< 1.5 ×10⁻⁶ cm/s,11 nM,–
"CC(C)Nc1cc(-c2cnn3cc(C#N)cnc23)ncc1C(=O)NCCC(C)(C)C#N [Example 169, N-(3-cyano-3-methylbutyl)-6-(6-cyanopyrazolo[1,5-a]pyrimidin-3-yl)-4-(isopropylamino)nicotinamide]",650 nM,14.2 ×10⁻⁶ cm/s,8 nM,–
"CC(C)(O)[C@H](F)CNC(=O)c1cnc(-c2cnn3cc(C#N)cnc23)cc1NCC(F)F [Example 171, (R)-6-(6-cyanopyrazolo[1,5-a]pyrimidin-3-yl)-4-((2,2-difluoroethyl)amino)-N-(2-fluoro-3-hydroxy-3-methylbutyl)nicotinamide]",360 nM,1.9 ×10⁻⁶ cm/s,6 nM,–
"CC(F)(F)CNc1cc(-c2cnn3cc(C#N)cnc23)ncc1C(=O)NC[C@@H](F)C(C)(C)O [Example 172, (R)-6-(6-cyanopyrazolo[1,5-a]pyrimidin-3-yl)-4-((2,2-difluoropropyl)amino)-N-(2-fluoro-3-hydroxy-3-methylbutyl)nicotinamide]",460 nM,4.2 ×10⁻⁶ cm/s,4 nM,–
"CC(C)Nc1cc(-c2cnc3cccnn23)ncc1C(=O)NC[C@@H](F)C(C)(C)O [Example 177, (R)—N-(2-fluoro-3-hydroxy-3-methylbutyl)-6-(imidazo[1,2-b]pyridazin-3-yl)-4-(isopropylamino)nicotinamide]",–,12.6 ×10⁻⁶ cm/s,10 nM,880 nM
"CCNc1cc(-c2cnc3cc(Cl)cnn23)ncc1C(=O)NC[C@@H](F)C(C)(C)O [Example 178, (R)-6-(7-chloroimidazo[1,2-b]pyridazin-3-yl)-4-(ethylamino)-N-(2-fluoro-3-hydroxy-3-methylbutyl)nicotinamide]",710 nM,21.5 ×10⁻⁶ cm/s,4 nM,–
"CCCNc1cc(-c2cnc3cc(Cl)cnn23)ncc1C(=O)NC[C@@H](F)C(C)(C)O [Example 179, (R)-6-(7-chloroimidazo[1,2-b]pyridazin-3-yl)-N-(2-fluoro-3-hydroxy-3-methylbutyl)-4-(propylamino)nicotinamide]",700 nM,16.8 ×10⁻⁶ cm/s,3 nM,–

# Second part, the compound after the results:
EC50 ([1]; Homo sapiens),"Papp at 2 h, 3 µM (Caco Permeability Assay)",IC50 (IRAK4),EC50 [1],Compound
930 nM,16.5 ×10⁻⁶ cm/s,2 nM,–,"CC(C)(O)[C@H](F)CNC(=O)c1cnc(-c2cnc3cc(Cl)cnn23)cc1NC1CCC1 [Example 180, (R)-6-(7-chloroimidazo[1,2-b]pyridazin-3-yl)-4-(cyclobutylamino)-N-(2-fluoro-3-hydroxy-3-methylbutyl)nicotinamide]"
100 nM,< 1.5 ×10⁻⁶ cm/s,3 nM,–,"C[C@@H](CO)Nc1cc(-c2cnc3cc(Cl)cnn23)ncc1C(=O)NC[C@@H](F)C(C)(C)O [Example 181, 6-(7-chloroimidazo[1,2-b]pyridazin-3-yl)-N—((R)-2-fluoro-3-hydroxy-3-methylbutyl)-4-(((S)-1-hydroxypropan-2-yl)amino)nicotinamide]"
750 nM,8.9 ×10⁻⁶ cm/s,2 nM,–,"CC(C)(O)[C@H](F)CNC(=O)c1cnc(-c2cnc3cc(C#N)cnn23)cc1NC1CCC1 [Example 183, (R)-6-(7-cyanoimidazo[1,2-b]pyridazin-3-yl)-4-(cyclobutylamino)-N-(2-fluoro-3-hydroxy-3-methylbutyl)nicotinamide]"
510 nM,3.4 ×10⁻⁶ cm/s,5 nM,–,"Cc1cnn2c(-c3cc(NC4CC4)c(C(=O)NC[C@@H](F)C(C)(C)O)cn3)cnc2c1 [Example 184, (R)-4-(cyclopropylamino)-N-(2-fluoro-3-hydroxy-3-methylbutyl)-6-(7-methylimidazo[1,2-b]pyridazin-3-yl)nicotinamide]"
